# System: single cells from the ventral hippocampus (vHipp)
# Assay: Single-cell RNA sequencing (scRNA-seq) of the ventral hippocampus after ketamine treatment; differential expression per cell type
# [1] = Microglia, ketamine 10 mg/kg i.p. vs saline
# [2] = OPCs, ketamine 10 mg/kg i.p. vs saline
# [3] = Oligodendrocytes, ketamine 10 mg/kg i.p.
# [4] = Oligodendrocytes, ketamine 10 mg/kg i.p. vs saline
# [5] = Vascular Cells, ketamine 10 mg/kg i.p. vs saline
compound,measurement,setting,value
"CNC1(c2ccccc2Cl)CCCCC1=O (racemic) [ketamine, (R,S)-ketamine]",Mean-Ket,"Lsm8, Glut Neurons",1.062
same,logFC,"Lsm8, Glut Neurons",−0.125
same,Change,"Map1lc3b, Glut Neurons",Down
same,Mean-Ket,"Map1lc3b, Glut Neurons",1.349
same,logFC,"Map1lc3b, Glut Neurons",−0.132
same,Change,"Map4, Glut Neurons",Down
same,Mean-Ket,"Map4, Glut Neurons",2.794
same,logFC,"Map4, Glut Neurons",−0.101
same,Change,"Matr3, Glut Neurons",Down
same,Mean-Ket,"Matr3, Glut Neurons",1.685
same,logFC,"Matr3, Glut Neurons",−0.160
same,Eef1akmt3 Mean-Ket,"Microglia, ketamine 10 mg/kg i.p.",1.718
same,Eef1akmt3 Change,[1],Up
same,Eef1akmt3 logFC,[1],0.394
same,Change,"Mmachc, Glut Neurons",Down
same,Mean-Ket,"Mmachc, Glut Neurons",2.750
same,logFC,"Mmachc, Glut Neurons",−0.102
same,Change,"Mrpl48, Glut Neurons",Up
same,Mean-Ket,"Mrpl48, Glut Neurons",1.060
same,logFC,"Mrpl48, Glut Neurons",0.180
same,Change,"Mtg2, Glut Neurons",Down
same,Mean-Ket,"Mtg2, Glut Neurons",2.635
same,logFC,"Mtg2, Glut Neurons",−0.091
same,Change,"Ndufc1, Glut Neurons",Down
same,Mean-Ket,"Ndufc1, Glut Neurons",1.039
same,logFC,"Ndufc1, Glut Neurons",−0.150
same,Change,"Nedd4, Glut Neurons",Down
same,Mean-Ket,"Nedd4, Glut Neurons",1.358
same,logFC,"Nedd4, Glut Neurons",−0.161
same,Change,"Nop58, Glut Neurons",Down
same,Mean-Ket,"Nop58, Glut Neurons",2.645
same,logFC,"Nop58, Glut Neurons",−0.096
same,Change,"Nvl, Glut Neurons",Up
same,Mean-Ket,"Nvl, Glut Neurons",1.070
same,logFC,"Nvl, Glut Neurons",0.148
same,genes differentially expressed exclusively in one cell type,OPCs,3
same,Akap5 Mean-Ket,"OPCs, ketamine 10 mg/kg i.p.",3.963
same,Eef1akmt3 Mean-Ket,"OPCs, ketamine 10 mg/kg i.p.",1.870
same,Ilf2 Mean-Ket,"OPCs, ketamine 10 mg/kg i.p.",1.310
same,Lrrc17 Mean-Ket,"OPCs, ketamine 10 mg/kg i.p.",3.227
same,Mfsd4a Mean-Ket,"OPCs, ketamine 10 mg/kg i.p.",0.916
same,Saa3 Mean-Ket,"OPCs, ketamine 10 mg/kg i.p.",1.654
same,Tmem181b-ps Mean-Ket,"OPCs, ketamine 10 mg/kg i.p.",0.055
same,Tmem1311 Mean-Ket,"OPCs, ketamine 10 mg/kg i.p.",0.804
same,Tmprss11a Mean-Ket,"OPCs, ketamine 10 mg/kg i.p.",0.015
same,Akap5 Change,[2],Down
same,Akap5 logFC,[2],−0.320
same,Eef1akmt3 Change,[2],Up
same,Eef1akmt3 logFC,[2],0.527
same,Ilf2 Change,[2],Up
same,Ilf2 logFC,[2],0.398
same,Lrrc17 Change,[2],Down
same,Lrrc17 logFC,[2],−0.286
same,Mfsd4a Change,[2],Up
same,Mfsd4a logFC,[2],0.460
same,Saa3 Change,[2],Up
same,Saa3 logFC,[2],0.404
same,Tmem181b-ps Change,[2],Down
same,Tmem181b-ps logFC,[2],−0.195
same,Tmem1311 Change,[2],Up
same,Tmem1311 logFC,[2],0.585
same,Tmprss11a Change,[2],Down
same,Tmprss11a logFC,[2],−0.121
same,Change,"Oaz1, Glut Neurons",Down
same,Mean-Ket,"Oaz1, Glut Neurons",1.200
same,logFC,"Oaz1, Glut Neurons",−0.205
same,Akap5 Mean-Ket,[3],3.517
same,Eef1akmt3 Mean-Ket,[3],2.089
same,Gsn Mean-Ket,[3],1.005
same,Ilf2 Mean-Ket,[3],1.493
same,Jpt2 Mean-Ket,[3],1.507
same,Lrrc17 Mean-Ket,[3],2.805
same,Map3k20 Mean-Ket,[3],2.351
same,Mfsd4a Mean-Ket,[3],1.058
same,Mmachc Mean-Ket,[3],3.286
same,Pias4 Mean-Ket,[3],1.649
same,Ppp1r7 Mean-Ket,[3],1.026
same,Psmb11 Mean-Ket,[3],1.161
same,Saa3 Mean-Ket,[3],1.909
same,Sec14l1 Mean-Ket,[3],1.281
same,Slc10a7 Mean-Ket,[3],1.538
same,Snhg11 Mean-Ket,[3],2.917
same,Supt7l Mean-Ket,[3],2.509
same,Them4 Mean-Ket,[3],1.517
same,Tulp1 Mean-Ket,[3],1.893
same,Upf3b Mean-Ket,[3],3.197
same,Vps8 Mean-Ket,[3],1.703
same,Xcr1 Mean-Ket,[3],1.078
same,Zfp229 Mean-Ket,[3],1.093
same,Zfp827 Mean-Ket,[3],1.284
same,Akap5 Change,[4],Down
same,Akap5 logFC,[4],−0.393
same,Eef1akmt3 Change,[4],Up
same,Eef1akmt3 logFC,[4],0.601
same,Gsn Change,[4],Up
same,Gsn logFC,[4],0.254
same,Ilf2 Change,[4],Up
same,Ilf2 logFC,[4],0.463
same,Jpt2 Change,[4],Up
same,Jpt2 logFC,[4],0.265
same,Lrrc17 Change,[4],Down
same,Lrrc17 logFC,[4],−0.365
same,Map3k20 Change,[4],Up
same,Map3k20 logFC,[4],0.245
same,Mfsd4a Change,[4],Up
same,Mfsd4a logFC,[4],0.642
same,Mmachc Change,[4],Up
same,Mmachc logFC,[4],0.154
same,Pias4 Change,[4],Up
same,Pias4 logFC,[4],0.209
same,Ppp1r7 Change,[4],Up
same,Ppp1r7 logFC,[4],0.231
same,Psmb11 Change,[4],Up
same,Psmb11 logFC,[4],0.191
same,Saa3 Change,[4],Up
same,Saa3 logFC,[4],0.574
same,Sec14l1 Change,[4],Up
same,Sec14l1 logFC,[4],0.238
same,Slc10a7 Change,[4],Up
same,Slc10a7 logFC,[4],0.192
same,Snhg11 Change,[4],Up
same,Snhg11 logFC,[4],0.164
same,Supt7l Change,[4],Up
same,Supt7l logFC,[4],0.169
same,Them4 Change,[4],Up
same,Them4 logFC,[4],0.233
same,Tulp1 Change,[4],Up
same,Tulp1 logFC,[4],0.207
same,Upf3b Change,[4],Up
same,Upf3b logFC,[4],0.166
same,Vps8 Change,[4],Down
same,Vps8 logFC,[4],−0.217
same,Xcr1 Change,[4],Up
same,Xcr1 logFC,[4],0.197
same,Zfp229 Change,[4],Up
same,Zfp229 logFC,[4],0.199
same,Zfp827 Change,[4],Up
same,Zfp827 logFC,[4],0.208
same,Change,"P3h3, Glut Neurons",Down
same,Mean-Ket,"P3h3, Glut Neurons",2.278
same,logFC,"P3h3, Glut Neurons",−0.111
same,Change,"Pan3, Astrocytes",Down
same,Mean-Ket,"Pan3, Astrocytes",1.194
same,logFC,"Pan3, Astrocytes",−0.179
same,Change,"Pbld1, Glut Neurons",Down
same,Mean-Ket,"Pbld1, Glut Neurons",3.387
same,logFC,"Pbld1, Glut Neurons",−0.106
same,Change,"Poldip2, Astrocytes",Down
same,Mean-Ket,"Poldip2, Astrocytes",1.255
same,logFC,"Poldip2, Astrocytes",−0.142
same,Change,"Polr2c, Glut Neurons",Down
same,Mean-Ket,"Polr2c, Glut Neurons",2.412
same,logFC,"Polr2c, Glut Neurons",−0.101
same,Change,"Ppan, Glut Neurons",Down
same,Mean-Ket,"Ppan, Glut Neurons",2.680
same,logFC,"Ppan, Glut Neurons",−0.102
same,Change,"Ppp1r16b, Astrocytes",Down
same,Mean-Ket,"Ppp1r16b, Astrocytes",2.539
same,logFC,"Ppp1r16b, Astrocytes",−0.227
same,Change,"Rhpn2, Glut Neurons",Down
same,Mean-Ket,"Rhpn2, Glut Neurons",1.601
same,logFC,"Rhpn2, Glut Neurons",−0.114
same,Change,"Rpl6, Glut Neurons",Down
same,Mean-Ket,"Rpl6, Glut Neurons",0.808
same,logFC,"Rpl6, Glut Neurons",−0.190
same,Change,"Rpl41, Glut Neurons",Down
same,Mean-Ket,"Rpl41, Glut Neurons",2.239
same,logFC,"Rpl41, Glut Neurons",−0.192
same,Change,"Rps29, Glut Neurons",Down
same,Mean-Ket,"Rps29, Glut Neurons",0.978
same,logFC,"Rps29, Glut Neurons",−0.136
same,Change,"Rtn1, Glut Neurons",Down
same,Mean-Ket,"Rtn1, Glut Neurons",1.210
same,logFC,"Rtn1, Glut Neurons",−0.185
same,Change,"Saa3, Astrocytes",Up
same,Mean-Ket,"Saa3, Astrocytes",1.697
same,logFC,"Saa3, Astrocytes",0.254
same,Change,"Saa3, Glut Neurons",Up
same,Mean-Ket,"Saa3, Glut Neurons",1.494
same,logFC,"Saa3, Glut Neurons",0.193
same,Change,"Sec23b, Glut Neurons",Down
same,Mean-Ket,"Sec23b, Glut Neurons",2.447
same,logFC,"Sec23b, Glut Neurons",−0.109
same,Change,"Sec23ip, Glut Neurons",Down
same,Mean-Ket,"Sec23ip, Glut Neurons",2.674
same,logFC,"Sec23ip, Glut Neurons",−0.107
same,Change,"Slc23a1, Glut Neurons",Down
same,Mean-Ket,"Slc23a1, Glut Neurons",2.215
same,logFC,"Slc23a1, Glut Neurons",−0.114
same,Change,"Slc25a4, Glut Neurons",Down
same,Mean-Ket,"Slc25a4, Glut Neurons",0.872
same,logFC,"Slc25a4, Glut Neurons",−0.125
same,Change,"Snca, Glut Neurons",Down
same,Mean-Ket,"Snca, Glut Neurons",0.835
same,logFC,"Snca, Glut Neurons",−0.147
same,Change,"Swt1, Glut Neurons",Down
same,Mean-Ket,"Swt1, Glut Neurons",2.617
same,logFC,"Swt1, Glut Neurons",−0.085
same,Change,"Synb, Glut Neurons",Down
same,Mean-Ket,"Synb, Glut Neurons",1.730
same,logFC,"Synb, Glut Neurons",−0.118
same,Change,"Syne1, Astrocytes",Up
same,Mean-Ket,"Syne1, Astrocytes",1.068
same,logFC,"Syne1, Astrocytes",0.128
same,Change,"Timeless, Glut Neurons",Down
same,Mean-Ket,"Timeless, Glut Neurons",2.582
same,logFC,"Timeless, Glut Neurons",−0.106
same,Change,"Tmsb4x, Glut Neurons",Down
same,Mean-Ket,"Tmsb4x, Glut Neurons",1.829
same,logFC,"Tmsb4x, Glut Neurons",−0.167
same,Change,"Tpd52, Astrocytes",Down
same,Mean-Ket,"Tpd52, Astrocytes",1.199
same,logFC,"Tpd52, Astrocytes",−0.145
same,Change,"Trpc4ap, Glut Neurons",Down
same,Mean-Ket,"Trpc4ap, Glut Neurons",1.729
same,logFC,"Trpc4ap, Glut Neurons",−0.115
same,Change,"Tuba1a, Astrocytes",Down
same,Mean-Ket,"Tuba1a, Astrocytes",1.483
same,logFC,"Tuba1a, Astrocytes",−0.162
same,Change,"Ube2k, Glut Neurons",Down
same,Mean-Ket,"Ube2k, Glut Neurons",2.844
same,logFC,"Ube2k, Glut Neurons",−0.099
same,Change,"Unc13d, Astrocytes",Down
same,Mean-Ket,"Unc13d, Astrocytes",1.469
same,logFC,"Unc13d, Astrocytes",−0.146
same,Change,"Usp34, Glut Neurons",Down
same,Mean-Ket,"Usp34, Glut Neurons",2.142
same,logFC,"Usp34, Glut Neurons",−0.099
same,Flna Mean-Ket,"Vascular Cells, ketamine 10 mg/kg i.p.",2.309
same,Flna Change,[5],Up
same,Flna logFC,[5],2.044
same,Change,"Washc4, Glut Neurons",Down
same,Mean-Ket,"Washc4, Glut Neurons",2.856
same,logFC,"Washc4, Glut Neurons",−0.092
same,Change,"Wdr12, Glut Neurons",Down
same,Mean-Ket,"Wdr12, Glut Neurons",2.770
same,logFC,"Wdr12, Glut Neurons",−0.102
same,Change,"Yae1d1, Glut Neurons",Down
same,Mean-Ket,"Yae1d1, Glut Neurons",1.738
same,logFC,"Yae1d1, Glut Neurons",−0.143
same,Change,"Ythdc1, Astrocytes",Down
same,Mean-Ket,"Ythdc1, Astrocytes",1.822
same,logFC,"Ythdc1, Astrocytes",−0.144
same,Change,"Zcchc4, Glut Neurons",Down
same,Mean-Ket,"Zcchc4, Glut Neurons",0.973
same,logFC,"Zcchc4, Glut Neurons",−0.113
same,Change,"Zfp113, Glut Neurons",Down
same,Mean-Ket,"Zfp113, Glut Neurons",2.767
same,logFC,"Zfp113, Glut Neurons",−0.090
same,Change,"Zfp369, Glut Neurons",Up
same,Mean-Ket,"Zfp369, Glut Neurons",1.005
same,logFC,"Zfp369, Glut Neurons",0.207
same,genes differentially expressed exclusively in one cell type,astrocytes,27
same,genes differentially expressed exclusively in one cell type,endothelial cells,1
same,genes differentially expressed exclusively in one cell type,glutamatergic neurons,135
same,DEGs in glutamatergic neurons,"glutamatergic neurons, all DEGs",165
same,total differentially expressed genes (DEGs),"in 7 of the 13 clusters, ketamine 10 mg/kg vs saline",263
same,"relative cell type composition for each cluster, ketamine vs saline","ketamine 10 mg/kg BW i.p., 2 days post-injection",no significant differences
same,Change,"mt-Atp6, Astrocytes",Up
same,Mean-Ket,"mt-Atp6, Astrocytes",2.236
same,logFC,"mt-Atp6, Astrocytes",0.106
same,Change,"mt-Cytb, Astrocytes",Up
same,Mean-Ket,"mt-Cytb, Astrocytes",2.746
same,logFC,"mt-Cytb, Astrocytes",0.093
same,Change,"mt-Nd2, Astrocytes",Up
same,Mean-Ket,"mt-Nd2, Astrocytes",1.340
same,logFC,"mt-Nd2, Astrocytes",0.132
same,Change,"mt-Nd4, Astrocytes",Up
same,Mean-Ket,"mt-Nd4, Astrocytes",2.165
same,logFC,"mt-Nd4, Astrocytes",0.125
same,genes differentially expressed exclusively in one cell type,oligodendrocytes,16
same,genes differentially expressed exclusively in one cell type,vascular cells,1
